The values that follow come from patent US20230279020A9, “CARM1 INHIBITORS AND USES THEREOF” (Epizyme, Inc., priority 2013, published 2023).

Where only a bound is given, the exact number is not on record here.

This test deals with Human CARM1 (PRMT4) (Homo sapiens (Human), UniProt Q86X55). Kind of test: CARM1 enzyme assay on peptide substrate (3H-SAM Flashplate). The conditions noted are these: Biochemical potencies, classification codes; read-out: Biochem IC50.
Human CARM1 (PRMT4), sequence (Q86X55 other isoform, or with tags, fused parts or gaps isoform Q86X55-1): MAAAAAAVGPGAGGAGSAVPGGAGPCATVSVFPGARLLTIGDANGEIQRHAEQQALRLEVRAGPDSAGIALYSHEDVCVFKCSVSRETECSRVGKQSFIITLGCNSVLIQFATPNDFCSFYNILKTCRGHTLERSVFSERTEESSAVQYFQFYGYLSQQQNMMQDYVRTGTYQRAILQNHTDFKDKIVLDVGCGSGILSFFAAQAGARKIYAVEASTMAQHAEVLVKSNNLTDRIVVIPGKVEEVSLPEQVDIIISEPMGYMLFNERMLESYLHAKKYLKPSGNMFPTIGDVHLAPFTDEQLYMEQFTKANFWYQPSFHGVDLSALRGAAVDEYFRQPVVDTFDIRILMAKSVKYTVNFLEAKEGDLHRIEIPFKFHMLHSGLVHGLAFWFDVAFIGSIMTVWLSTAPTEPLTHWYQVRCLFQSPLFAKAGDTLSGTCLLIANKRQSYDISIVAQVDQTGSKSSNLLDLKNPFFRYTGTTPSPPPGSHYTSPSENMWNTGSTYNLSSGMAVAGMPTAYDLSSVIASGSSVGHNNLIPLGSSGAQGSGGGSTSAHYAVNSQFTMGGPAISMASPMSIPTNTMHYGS
The term IC50 denotes the concentration needed to halve the response being measured. For the compound `CNC[C@@H](O)COc1ccc(Cl)c(-c2nc(-c3c(C)noc3C)c(C)c(N3CC4(CCN(C(=O)OC(C)C)C4)C3)n2)c1` [Example 286-3], the IC50 is below 100 nM.
Regarding `CNCC(O)COc1cccc(-c2nc(OCC3CCN(C(C)=O)CC3)c(C)c(-c3c(C)noc3C)n2)c1` (stereo not shown) [Example 287-1a], the IC50 is below 100 nM.
For `CCOC(=O)N1CCC2(C1)CN(c1nc(-c3cc(OC[C@H](O)CNC)ccc3Cl)nc(-c3c(C)noc3C)c1C)C2` [Example 287-3], the IC50 was below 100 nM.
For the compound `CNCC(O)COc1cccc(-c2nc(OCC3CCN(CC(F)F)CC3)c(C)c(-c3c(C)noc3C)n2)c1` (stereo not shown) [Example 288-1a], the concentration for half-maximal inhibition (IC50) was below 100 nM.
To `CNC[C@@H](O)COc1ccc(Cl)c(-c2nc(-c3c(C)noc3C)c(C)c(N3CCC4(CCOC4)C3)n2)c1` (stereo partly shown) [Example 288-3] belongs below 100 nM; to `CNCC(O)COc1cccc(-c2nc(OCC3CCNCC3)c(C)c(-c3c(C)noc3C)n2)c1` (stereo not shown) [Example 289-1a], below 100 nM.
Regarding `CNC[C@@H](O)COc1ccc(Cl)c(-c2nc(-c3c(C)noc3C)c(C)c(N3CCC4(CCCO4)C3)n2)c1` (stereo partly shown) [Example 289-3], the IC50 was below 100 nM.
As for `CNCC(O)COc1cccc(-c2nc(NC3CCOC(C)(C)C3)c(C)c(-c3c(C)noc3C)n2)c1` (stereo not shown) [Example 290-1a], the IC50 is below 100 nM.
In the case of `CNC[C@@H](O)COc1ccc(Cl)c(-c2nc(-c3c(C)noc3C)c(C)c(N3CC4(CCCCO4)C3)n2)c1` [Example 290-3], the IC50 was below 100 nM.
With `CNCC(O)COc1cccc(-c2nc(N[C@@H]3CCOC3=O)c(C)c(-c3c(C)noc3C)n2)c1` (stereo partly shown) [Example 291-1a], the 50% inhibitory concentration (IC50) was below 100 nM.
Take `CNCC(O)COc1cccc(-c2nc(NC3CCC3)c(C)c(-c3c(C)noc3C)n2)c1` (stereo not shown) [Example 292-1a]: the IC50 was below 100 nM.
As for `CNCC(O)COc1cccc(-c2nc(NC3CC3)c(C)c(-c3c(C)noc3C)n2)c1` (stereo not shown) [Example 293-1a], the IC50 was below 100 nM.
In the case of `CNC[C@@H](O)COc1ccc(Cl)c(-c2nc(-c3c(C)noc3C)c(C)c(N3Cc4cn(S(C)(=O)=O)nc4C3)n2)c1` [Example 293-3], the IC50 was below 100 nM.
`CNCC(O)COc1cccc(-c2nc(-c3c(C)noc3C)c(C)c(N3CCC4(CC3)CN(C3CC3)C4)n2)c1` (stereo not shown) [Example 294-1a]: the IC50 is below 100 nM.
As for `CNC[C@@H](O)COc1ccc(F)c(-c2nc(-c3c(C)noc3C)c(Cl)c(N3CC4(CCOCC4)C3)n2)c1` [Example 294-3], the IC50 was below 100 nM.
Take `CCOC(=O)N1CC2(CCCN(c3nc(-c4cccc(OCC(O)CNC)c4)nc(-c4c(C)noc4C)c3C)C2)C1` (stereo not shown) [Example 295-1a]: the IC50 was below 100 nM.
`CNC[C@@H](O)COc1ccc(F)c(-c2nc(-c3c(C)noc3C)c(Cl)c(N3Cc4nccnc4C3)n2)c1` [Example 295-3]: the IC50 is below 100 nM.
As to `CCS(=O)(=O)N1CC2(CCCN(c3nc(-c4cccc(OCC(O)CNC)c4)nc(-c4c(C)noc4C)c3C)C2)C1` (stereo not shown) [Example 296-1a], the IC50 was below 100 nM.
For `CNC[C@@H](O)COc1ccc(Cl)c(-c2nc(-c3c(C)noc3C)c(C)c(N3Cc4cc(C)cnc4C3)n2)c1` [Example 296-3], the IC50 is below 100 nM.
Turning to `CNCC(O)COc1cccc(-c2nc(-c3c(C)noc3C)c(C)c(N3CCCC4(CN(C(=O)N(C)C)C4)C3)n2)c1` (stereo not shown) [Example 297-1a], the 50% inhibitory concentration (IC50) was below 100 nM.
Consider `CNC[C@@H](O)COc1ccc(Cl)c(-c2nc(-c3c(C)noc3C)c(F)c(N3Cc4nccnc4C3)n2)c1` [Example 297-3], for which the 50% inhibitory concentration (IC50) is below 100 nM.
As to `CNCC(O)COc1cccc(-c2nc(-c3c(C)noc3C)c(C)c(N3CC(CO)(CNC(=O)N(C)C)C3)n2)c1` (stereo not shown) [Example 298-1a], the IC50 was below 100 nM.
With `CNCC(O)COc1cccc(-c2nc(-c3c(C)noc3C)c(C)c(N3CC4(CN(C(=O)OC)C4)C3)n2)c1` (stereo not shown) [Example 299-1a], the IC50 is below 100 nM.
In the case of `CNCC(O)COc1cccc(-c2nc(NCC3(OC)CCOCC3)c(C)c(-c3c(C)noc3C)n2)c1` (stereo not shown) [Example 300-1a], the IC50 is below 100 nM.
In the case of `CNCC(O)COc1cccc(-c2nc(NCC3(N4CCC4)CCOCC3)c(C)c(-c3c(C)noc3C)n2)c1` (stereo not shown) [Example 301-1a], the IC50 was below 100 nM.
On to `CNCC(O)COc1cccc(-c2nc(NCC3(N4CC(F)(F)C4)CCOCC3)c(C)c(-c3c(C)noc3C)n2)c1` (stereo not shown) [Example 302-1a], for which the IC50 was below 100 nM.
On to `CNCC(O)COc1cccc(-c2nc(OCC3CCN(C4CC4)CC3)c(C)c(-c3c(C)noc3C)n2)c1` (stereo not shown) [Example 303-1a], for which the IC50 is below 100 nM.
For the compound `CNC[C@H](O)COc1ccc(Cl)c(-c2nc(NC3CCN(C(=O)OC)CC3)c(Cl)c(-c3c(C)noc3C)n2)c1` [Example 305-1a], the IC50 was below 100 nM.
Consider `CNCC(O)COc1cccc(-c2nc(NC[C@@H]3CN(C(=O)OC)CCO3)c(C)c(-c3c(C)noc3C)n2)c1` (stereo partly shown) [Example 306-1a], for which the 50% inhibitory concentration (IC50) was below 100 nM.
To `CNCC(O)COc1cccc(-c2nc(N[C@@H]3CCNC3)c(C)c(-c3c(C)noc3C)n2)c1` (stereo partly shown) [Example 307-1a] belongs below 100 nM; to `CNCC(O)COc1cccc(-c2nc(-c3c(C)noc3C)c(C)c(N(C)C)n2)c1` (stereo not shown) [Example 308-1a], below 100 nM; to `CNCC(O)COc1cccc(-c2nc(-c3c(C)noc3C)c(C)c(N3CC4(CN(C(=O)N(C)C)C4)C3)n2)c1` (stereo not shown) [Example 309-1a], below 100 nM.
With `CNCC(O)COc1cc(Cl)cc(-c2nc(N[C@@H]3CCOC3)c(C)c(-c3ccncc3)n2)c1` (stereo partly shown) [Example 331-1a], the half-inhibitory concentration (IC50) was below 100 nM.
For the compound `CNCC(O)COc1cccc(-c2nc(N[C@@H]3CCOC3)c(C)c(-c3ccncc3)n2)c1` (stereo partly shown) [Example 332-1a], the IC50 was below 100 nM.
In the case of `CNCC(O)COc1cc(Cl)cc(-c2nc(-c3ccncc3)c(C)c(N(C)[C@H]3CCOC3)n2)c1` (stereo partly shown) [Example 334-1a], the half-maximal inhibitory concentration (IC50) is below 100 nM.
With `CNCC(O)COc1cccc(-c2nc(NC3CCOC3)c(C)c(-c3cn(C)nn3)n2)c1` (stereo not shown) [Example 335-1a], the IC50 is below 100 nM.
As for `CNCC(O)COc1cccc(-c2nc(N[C@@H]3CCOC3)c(C)c(-c3cn[nH]c3)n2)c1` (stereo partly shown) [Example 338-1a], the half-inhibitory concentration (IC50) was below 100 nM.
For `CNCC(O)COc1cccc(-c2nc(-c3ccncc3)c(C)c(N(C)[C@@H]3CCOC3)n2)c1` (stereo partly shown) [Example 339-1a], the IC50 was below 100 nM.
For the compound `CNCC(O)COc1cccc(-c2nc(N[C@@H]3CCOC3)c(C)c(-c3cncc(C(=O)OC)c3)n2)c1` (stereo partly shown) [Example 340-1a], the IC50 is below 100 nM.
For `CNCC(O)COc1cccc(-c2nc(N[C@@H]3CCOC3)c(C)c(-c3cncc(C#N)c3)n2)c1` (stereo partly shown) [Example 341-1a], the IC50 is below 100 nM.
With `CNCC(O)COc1cccc(-c2nc(N[C@@H]3CCOC3)c(C)c(-c3cncnc3)n2)c1` (stereo partly shown) [Example 350-1a], the IC50 was below 100 nM.
For the compound `CNCC(O)COc1cccc(-c2nc(NC3CCOC3)c(C)c(N3CCN[C@@H](C)C3)n2)c1` (stereo partly shown) [Example 351-1a], the IC50 was below 100 nM.
Take `CNCC(O)COc1cccc(-c2nc(NC3CCOC3)c(C)c(N3CCNC[C@H]3C)n2)c1` (stereo partly shown) [Example 352-1a]: the IC50 is below 100 nM.
As for `CNCC(O)COc1cccc(-c2nc(N[C@@H]3CCOC3)c(C)c(-c3cnc4[nH]ccc4c3)n2)c1` (stereo partly shown) [Example 355-1a], the IC50 was below 100 nM.
Consider `CNCC(O)COc1cccc(-c2nc(N[C@@H]3CCOC3)c(C)c(-c3cnc(OC)nc3)n2)c1` (stereo partly shown) [Example 356-1a], for which the IC50 was below 100 nM.
Under `CNCC(O)COc1cccc(-c2nc(N[C@@H]3CCOC3)c(C)c(N3CCC[C@@H](O)C3)n2)c1` (stereo partly shown) [Example 358-1a] stands below 100 nM; under `CNCC(O)COc1cccc(-c2nc(N[C@@H]3CCOC3)c(C)c(N3CCn4ccnc4C3)n2)c1` (stereo partly shown) [Example 359-1a], below 100 nM; under `CNCC(O)COc1cccc(-c2nc(N[C@H]3CCOC3)c(C)c(N3CCC(O)CC3)n2)c1` (stereo partly shown) [Example 362-1a], below 100 nM.
For `CNCC(O)COc1cccc(-c2nc(N[C@H]3CCOC3)c(C)c(C(=O)N(C)CC3CCOCC3)n2)c1` (stereo partly shown) [Example 363-1a], the IC50 lay in the range of 100 to 1000 nM.
As to `CNCC(O)COc1cccc(-c2nc(NCCCCl)c(C)c(N[C@@H]3CCOC3)n2)c1` (stereo partly shown) [Example 366-1a], the IC50 was below 100 nM.
`CNCC(O)COc1cccc(-c2nc(N[C@@H]3CCOC3)c(C)c(N3CCC(N4CCOCC4)CC3)n2)c1` (stereo partly shown) [Example 367-1a]: the IC50 was below 100 nM.
On to `CNCC(O)COc1cccc(-c2nc(N[C@@H]3CCOC3)c(C)c(N3CC[C@H](N(C)C)C3)n2)c1` (stereo partly shown) [Example 368-1a], for which the IC50 is below 100 nM.
In the case of `CNCC(O)COc1cccc(-c2nc(N[C@@H]3CCOC3)c(C)c(N3CC[C@@H](OC)C3)n2)c1` (stereo partly shown) [Example 369-1a], the IC50 was below 100 nM.
Consider `CNCC(O)COc1cccc(-c2nc(N[C@@H]3CCOC3)c(C)c(N3CCC(OC)CC3)n2)c1` (stereo partly shown) [Example 370-1a], for which the 50% inhibitory concentration (IC50) was below 100 nM.
Under `CNCC(O)COc1cccc(-c2nc(N[C@@H]3CCOC3)c(Cl)c(N3CCOCC3)n2)c1` (stereo partly shown) [Example 376-1a] stands below 100 nM; under `CNCC(O)COc1cccc(-c2nc(N[C@@H]3CCOC3)c(C)c(N3CCC3)n2)c1` (stereo partly shown) [Example 377-1a], below 100 nM; under `CNCC(O)COc1cccc(-c2nc(N[C@@H]3CCOC3)c(C)c(N(C)C3CCN(C)CC3)n2)c1` (stereo partly shown) [Example 379-1a], below 100 nM.
Regarding `CNCC(O)COc1cccc(-c2nc(N[C@H]3CCOC3)c(C)c(-n3nc(C)cc3C)n2)c1` (stereo partly shown) [Example 381-1a], the IC50 is below 100 nM.
Consider `CNCC(O)COc1cccc(-c2nc(N[C@@H]3CCOC3)c(C)c(-n3nc(C)cc3C)n2)c1` (stereo partly shown) [Example 382-1a], for which the IC50 was below 100 nM.
Regarding `CNCC(O)COc1cccc(-c2nc(N[C@@H]3CCOC3)c(C)c(N3CCN(CC(=O)N(C)C)CC3)n2)c1` (stereo partly shown) [Example 391-1a], the IC50 is below 100 nM.
Regarding `CNCC(O)COc1cccc(-c2nc(N[C@@H]3CCOC3)c(C)c(N3CC[C@@H](N(C)C)C3)n2)c1` (stereo partly shown) [Example 392-1a], the half-inhibitory concentration (IC50) is below 100 nM.
Turning to `CNCC(O)COc1cccc(-c2nc(N[C@@H]3CCOC3)c(C)c(N3Cc4cccnc4C3)n2)c1` (stereo partly shown) [Example 394-1a], the concentration for half-maximal inhibition (IC50) was below 100 nM.
For the compound `CNCC(O)COc1cccc(-c2nc(N[C@@H]3CCOC3)c(C)c(N3CCN(C(C)=O)[C@@H](C)C3)n2)c1` (stereo partly shown) [Example 396-1a], the IC50 was below 100 nM.
Under `CNCC(O)COc1cccc(-c2nc(NC3CCOC3)c(C)c(C(=O)NC3CCN(C)CC3)n2)c1` (stereo not shown) [Example 397-1a] stands below 100 nM.
